In brackets after ≈: the same amount, converted by molar mass. Numbered stars: 1 amine (or outer) side, 2 acyl side, 3 side chain; on linkers, the order of the positions; unused ones are H or OH. Bridge positions count the residues as written; N and C are the ends. Square brackets hold non-standard residues; d marks the D form. Peptide text beside a SMILES is read from it. I, II: the chains in the order shown. Actinocin(9to1) = Cc1c2oc3c(C)ccc(C(=O)[*:1])c3nc-2c(C(=O)[*:2])c(N)c1=O; NMeV = CN[C@H](C(=O)O)C(C)C; Sar = CNCC(=O)O
What was measured:
DNA = assay: DNA-drug binding by difference spectral (absorption and CD) techniques; conditions: for Diff. CD Spectra -Δ[θ]max (nm): DNA-bound vs combined individual spectra; for Diff. CD Spectra -Δ[θ]max (nm) / Diff. Absorption Spectra -Δεmax (nm): 340-600 nm, wavelength in brackets, phosphate buffer pH 7.0; for Diff. Absorption Spectra -Δεmax (nm): free minus DNA-bound spectrum
Description: ^b Diff. Absorption Spectra is the calculated absorption spectra
obtained by subtracting the spectrum of the DNAbound analogue from the
spectrum of the free analogue, measured at 340-600 nm.
^c Diff. CD Spectra is the calculated CD Spectra obtained as the
difference of the DNAbound from the combined individual spectra of
analogues and DNA at 340-600 nm.
(§1) Medium: 0.01 M phosphate containing 10^-4 EDTA, buffer pH 7.0.
DNA-DRUG BINDING BY DIFFERENCE SPECTRAL AND THERMAL DEVATURATION OF DNA (ΔTm) TECHNIQUES
These experiments were performed according to the methods described by Sengupta et al., Cancer Chemother. Rep., 1974, 58, p. 35, Sengupta et al, J. Med. Chem., 1981, 24, p. 1052 and Sengupta et al, 1983, 26, p. 448, Sengupta et al, 1978, Biochem. Biophys Acta, 521, p. 89.

purified calfthymus DNA = assay: Thermal denaturation of DNA (ΔTm); format: binding, calf; conditions: 0.01 M phosphate, EDTA, buffer pH 7.0
Method: ^a ΔTm = Tm of DNAdrug complex minut Tm of
purified calfthymus DNA.
as §1
Melting points were determined on a Thomas-Hoover melting point apparatus at a heating rate of 2° C./min. Dry column chromatography was accomplished with silicic acid powder (Bio-Sil A 100-200 mesh, Bio-Rad Laboratories, Inc.) or acid alumina (Woelm grade 1). Thin layer chromatography was performed on silica gel plates (Brinkmann Instrument, Inc.). For oxazinone analogues (2b), the silica gel plates were exposed to the vapor of conc. HCL in an air-tight container for 20 min before application of the compound for TLC. This procedure helped to prevent the streaking of the compounds in the chromatogram. Solvent systems were (A) EtOAc-acetone (2:1); (B) dry t-BuOH-C6 H6 --C6 H5 N (85:12.5:2.5); (C) Cifferri, the organic phase of the mixture EtOAc-MeOH-H2 O (20:L:20). High performance-liquid chromatography was carried out on a Varian Model 5020 gradient liquid chromatograph equipped with CD-111L chromatography data system and fitted with Varian reversed-phase C18 column with isocratic solvent systems, CH3 CN-5 mM NH4 OAc buffer, pH 6.4 (68:32), flow rate 15 mL/mn, with UV-visible variable and fixed wavelength dual detectors at 254,440, 500 and 252 nm. Spectra were determined on the following instruments: IR spectra were obtained on the Perkin-Elmer Model 237 Infra Cord with KBr micropellets or in CHCl3 solutions; UV-visible spectra were obtained on a Gilford 250 spectrophotometer, which, with the addition of a baseline reference compensator (Analog Multiplexer 5053) and thermoprogrammer, auto four cell programmer and thermoelectric cell holder 2577, were used to obtain thermal denaturation curves; specific rotational values were determined in CHCl3 solutions using a Cary 60 spectropolarimeter; NMR spectra were obtained in a JOEL FQ -90 MHz spectrometer equipped with Fourier transform. All elemental analyses were within +0.4%, unless it is specified otherwise.
DNA-DRUG BINDING BY DIFFERENCE SPECTRAL AND THERMAL DEVATURATION OF DNA (ΔTm) TECHNIQUES […]

[1] = test system: human lymphoblastic leukemia cells (CCRF-CEM); assay: In vitro growth inhibition of CCRF-CEM cells; format: cell-based; conditions: for In Vitro (CCRF-CEM) ID50: cells in log-phase growth, suspension culture, final growth medium 5% Me2SO
Method: ^b Human lymphoblastic luekemia cells in logphase growth and in a
suspension culture. Compounds were dissolved in Me2 SO medium, final
growth medium contained 5% Me2 SO.
In vitro growth inhibition of the analogues were assayed against human lymphoblastic leukemia cells (CCRF-CEM) in log phase. The most cyctoxic are AMD-OZN analogues 2b and 2g and AMD-OZL analogues 4a-4c. However, compared to AMD, they are several fold less cytotoxic to CEM-cells in vitro.

[2] = test system: P388 lymphocytic leukemia; assay: In vivo P388 assay; design: species or system mice; conditions: ip days 1,5,9; for % ILS (percent increase in life span) / MST (median survival time) / Cure (over 60 day survivors): at optimum dose; for % ILS (percent increase in life span) / MST (median survival time): CDF1 male mice; for MST (median survival time): control MST 11.0 days; for Cure (over 60 day survivors): group of 7 CDF1 male mice, average of 2 experiments; for antitumor activity against P388 (in words): CDF1 mice
Method: ^c 10^6 P388 cells implanted intraperitoneally on day 0 into a
group of 7 CDF1 male mice. Drugs were administered, also ip, in 10%
Me2 SO--saline on days 1,5,9. Test solutions were kept at 0-4.degree
C., protected from light.
These analogues were tested for antitumor activity against P388 lymphocytic leukemia in male CDF1 hybrid mice (Table 6). The tumor was implanted intraperitoneally (ip) with 10^6 cells. The drugs were administered once daily on days 1, 5, 9 beginning 1 day after implantation.

mouse leukemia cells = conditions: known before this invention; cited from earlier work
[3] = Solubility in distilled water
Method: SOLUBILITY OF ACTINOMYCIN D AND ANALOGUES 2b, 3b AND 4b IN DISTILLED WATER AT 20° C. AND 4° C.

SMILES	Diff. CD Spectra -Δ[θ]max (nm) (DNA)	Diff. Absorption Spectra -Δεmax (nm) (DNA)	ΔTm (Tm of DNA-drug complex minus Tm of DNA) (purified calfthymus DNA) [°C]	In Vitro (CCRF-CEM) ID50 [1] [mg/L]	% ILS (percent increase in life span) [2] [%]	MST (median survival time) [2] [days]	Cure (over 60 day survivors) [2]	activity against mouse leukemia cells (mouse leukemia cells)	cytotoxicity to CEM cells (in words) ([1]; CCRF-CEM in log phase)	activity against human cancer cells (in words) [1]	antitumor activity against P388 (in words) [2]	DNA binding (in words) (DNA; difference spectral or ΔTm techniques)	solubility in distilled water ([3]; 4° C.) [mg/mL]	solubility in distilled water ([3]; 20° C.) [mg/mL]	relative solubility in water (in words) [3]
Cc1nc2c(C(=O)N[C@@H]3C(=O)N[C@H](C(C)C)C(=O)N4CCC[C@H]4C(=O)N(C)CC(=O)N(C)[C@@H](C(C)C)C(=O)O[C@@H]3C)c3c(c(C)c2o1)Oc1c(C)ccc(C(=O)N[C@@H]2C(=O)N[C@H](C(C)C)C(=O)N4CCC[C@H]4C(=O)N(C)CC(=O)N(C)[C@@H](C(C)C)C(=O)O[C@@H]2C)c1N3 [Compound 3a]	nil	nil	0.0 ± 0.30	2.9	91	21	0/7	–	–	–	–	–	–	–	–
Cc1ccc(C(=O)N[C@@H]2C(=O)N[C@H](C(C)C)C(=O)N3CCC[C@H]3C(=O)N(C)CC(=O)N(C)[C@@H](C(C)C)C(=O)O[C@@H]2C)c2c1Oc1c(c(C(=O)N[C@@H]3C(=O)N[C@H](C(C)C)C(=O)N4CCC[C@H]4C(=O)N(C)CC(=O)N(C)[C@@H](C(C)C)C(=O)O[C@@H]3C)c3nc(-c4ccccc4)c(=O)oc3c1C)N2 [Compound 2b]	–	–	–	0.44	309	45	2/7	active	most cyctoxic	highest human antitumor effects	most active	–	–	–	–
Cc1c2oc3c(C)ccc(C(=O)N[C@@H]4C(=O)N[C@H](C(C)C)C(=O)N5CCC[C@H]5C(=O)N(C)CC(=O)N(C)[C@@H](C(C)C)C(=O)O[C@@H]4C)c3nc-2c(C(=O)N[C@@H]2C(=O)N[C@H](C(C)C)C(=O)N3CCC[C@H]3C(=O)N(C)CC(=O)N(C)[C@@H](C(C)C)C(=O)O[C@@H]2C)c(N)c1=O [Compound 1a, Actinomycin D, reference compound] (I: T[dV]P[Sar][NMeV] / II: T[dV]P[Sar][NMeV]; ester I:1-I:C, II:1-II:C; linker I:N-II:N via Actinocin(9to1))	40,000(390)	8,240(425)	7.1 ± 0.15	0.04	136	26	1/7	–	–	–	–	binds to DNA strongly by intercalation	20.5 (≈ 16.3 mM)	0.9 (≈ 0.717 mM)	–
Cc1c2oc3c(C)c(O)cc(C(=O)N[C@@H]4C(=O)N[C@H](C(C)C)C(=O)N5CCC[C@H]5C(=O)N(C)CC(=O)N(C)[C@@H](C(C)C)C(=O)O[C@@H]4C)c3nc-2c(C(=O)N[C@@H]2C(=O)N[C@H](C(C)C)C(=O)N3CCC[C@H]3C(=O)N(C)CC(=O)N(C)[C@@H](C(C)C)C(=O)O[C@@H]2C)c(N)c1=O [Compound 1b, 7-HYDROXY ACTINOMYCIN D]	31,000(485)	9,380(550)	6.7 ± 0.15	–	–	–	–	–	–	–	–	–	–	–	–
Cc1c2oc3c(C)c4oc(-c5ccccc5)nc4c(C(=O)N[C@@H]4C(=O)N[C@H](C(C)C)C(=O)N5CCC[C@H]5C(=O)N(C)CC(=O)N(C)[C@@H](C(C)C)C(=O)O[C@@H]4C)c3nc-2c(C(=O)N[C@@H]2C(=O)N[C@H](C(C)C)C(=O)N3CCC[C@H]3C(=O)N(C)CC(=O)N(C)[C@@H](C(C)C)C(=O)O[C@@H]2C)cc1=O [Compound 4b, 2-PHENYL-9,11-DIMETHYL-8-OXO-8H-OXAZOLO[4,5-b]PHENOXAZINE 4,6-BIS[CARBONYL-L-THREONYL-D-VALYL-L-PROLYLSARCOSYL-L-N-METHYLVALINE-(THR EONINE HYDROXYL)] LACTONE]	–	–	–	0.31	300	44	2/7	–	–	highest human antitumor effects	most active	–	11 (≈ 8.1 mM)	1.7 (≈ 1.25 mM)	more soluble in water at 4 °C than at 20 °C
